In ChEMBL document CHEMBL1132169 (J Med Chem, 1999) one finds IC50 and Discrimination ratio data, which are given here for 21 compounds.

Assay [1] concerns the target T1, Sodium-dependent dopamine transporter (Rattus norvegicus, UniProt P23977). Nature of the assay: Inhibitory binding activity against rat striatal tissue using [3H][…] as the radioligand. The assay is classed as tissue-based, Striatum.
Assay [2] has as its target T1, Sodium-dependent dopamine transporter. Nature of the assay: Inhibition of dopamine uptake into rat striatal tissue, using [3H]- dopamine as the radioligand. The assay is classed as tissue-based, Striatum.
The target in assay [3] is Sodium-dependent dopamine transporter (Rattus norvegicus) (UniProt P23977). Nature of the assay: Discrimination ratio of compound is the ratio of inhibitory activity against [3H]dopamine uptake over [3H][…] binding.
Sequence of Sodium-dependent dopamine transporter (Rattus norvegicus) (P23977 whole entry): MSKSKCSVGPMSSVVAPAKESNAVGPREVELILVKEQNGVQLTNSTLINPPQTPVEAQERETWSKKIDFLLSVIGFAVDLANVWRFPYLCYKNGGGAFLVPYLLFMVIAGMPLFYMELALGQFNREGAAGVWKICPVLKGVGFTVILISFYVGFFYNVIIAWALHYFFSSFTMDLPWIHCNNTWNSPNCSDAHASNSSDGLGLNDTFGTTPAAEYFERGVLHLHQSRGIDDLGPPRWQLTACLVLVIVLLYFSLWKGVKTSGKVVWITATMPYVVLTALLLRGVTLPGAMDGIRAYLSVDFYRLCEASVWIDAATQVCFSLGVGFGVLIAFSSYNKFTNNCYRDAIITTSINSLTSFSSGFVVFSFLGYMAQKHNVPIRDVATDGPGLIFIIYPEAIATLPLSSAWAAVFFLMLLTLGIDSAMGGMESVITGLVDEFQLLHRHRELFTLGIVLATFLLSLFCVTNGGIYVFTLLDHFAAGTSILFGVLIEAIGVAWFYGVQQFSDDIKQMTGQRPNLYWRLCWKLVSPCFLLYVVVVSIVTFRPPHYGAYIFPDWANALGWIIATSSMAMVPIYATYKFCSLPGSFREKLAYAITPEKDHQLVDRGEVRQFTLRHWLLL

T1 sequence (P23977 whole entry): as above

For `COc1ccc(C2C3CCC(CC3)C2CN(C)C)cc1` (stereo not given), the results for the IC50 in assay [1] and in assay [2] were 380 nM and 1430 nM, respectively. In addition, in assay [3], the Discrimination ratio turned out to be 3.8.

On to `COc1ccc(C2C3CCC(CC3)C2CN)cc1` (stereo not given), for which the IC50 in assay [1] was found to be 249 nM; in assay [2] it was 1500 nM. The Discrimination ratio in assay [3] was 6.

Consider `NCC1C2CCC(CC2)C1c1ccc(N)cc1` (stereo not given), for which the IC50 in assay [1] is 160 nM; in assay [2], 704 nM. The Discrimination ratio in assay [3] was 4.4.

For the compound `COc1cccc(C2C3CCC(C3)C2CN)c1` (stereo in doubt; 9f), the IC50 in assay [1] is 8820 nM; in assay [2], 29300 nM.

On to `COc1ccc(C2C3CCC(C3)C2CN)cc1` (stereo in doubt; 9g), for which the IC50 in assay [1] was determined as 1160 nM; in assay [2], 5550 nM.

On to `CN(C)CC1C2CCC(C2)C1c1ccccc1` (stereo in doubt; 10a), for which the IC50 was 515 nM in assay [1] and 1100 nM in assay [2].

Turning to `NCC1C2CCC(C2)C1c1ccccc1` (stereo in doubt; 11a), the values for the IC50 in assay [1] and in assay [2] were 2900 nM and 8850 nM, respectively.

Regarding `NCC1C2CCC(C2)C1c1cccc(Cl)c1` (stereo in doubt; 11b), the IC50 in assay [1] was 239 nM; in assay [2], 780 nM.

As for `NCC1C2CCC(C2)C1c1ccc(Cl)cc1` (stereo in doubt; 11c), the IC50 in assay [1] amounted to 207 nM; in assay [2], 593 nM.

`NCC1C2CCC(C2)C1c1ccc(Cl)c(Cl)c1` (stereo in doubt; 11d): the results for the IC50 in assay [1] and in assay [2] were 32.7 nM and 93.6 nM, respectively.

Turning to `COc1ccccc1C1C2CCC(C2)C1CN` (stereo in doubt; 11e), the IC50 in assay [1] was found to be 1480 nM; in assay [2], 7860 nM.

For the compound `COc1cccc(C2C3CCC(C3)C2CN)c1` (stereo in doubt; 11f), the IC50 was found to be 2010 nM in assay [1] and 6560 nM in assay [2].

In the case of `COc1ccc(C2C3CCC(C3)C2CN)cc1` (stereo in doubt; 11g), the IC50 in assay [1] was determined as 1700 nM; in assay [2] it was 7120 nM.

As to `CN(C)CC1C2CCC(C2)C1c1ccccc1` (stereo in doubt; 12a), the values for the IC50 in assay [1] and in assay [2] were 2510 nM and 4330 nM, respectively.

Take `NCC1C2CCC(C2)C1c1ccccc1` (stereo in doubt; 13a): the figures for the IC50 in assay [1] and in assay [2] were 816 nM and 3500 nM, respectively.

Consider `NCC1C2CCC(C2)C1c1ccc(Cl)cc1` (stereo in doubt; 13c), for which the IC50 in assay [1] turned out to be 65.3 nM; in assay [2], 348 nM.

For `NCC1C2CCC(C2)C1c1ccc(Cl)c(Cl)c1` (stereo in doubt; 13d), the IC50 stood at 21.3 nM in assay [1] and 98.7 nM in assay [2].

Regarding `COc1ccc(C2C3CCC(C3)C2CN)cc1` (stereo in doubt; 13g), the IC50 in assay [1] was determined as 495 nM; in assay [2] it was 2260 nM.

As to `CN(C)CC1C2CCC(C2)C1c1ccccc1` (stereo in doubt; 14a), the IC50 in assay [1] was 2140 nM; in assay [2], 2750 nM.

`NCC1C2CCC(C2)C1c1ccccc1` (stereo in doubt; 15a): the IC50 came to 251 nM in assay [1] and 875 nM in assay [2].

As to `NCC1C2CCC(C2)C1c1ccc(Cl)cc1` (stereo in doubt; 15c), the IC50 was 7.7 nM in assay [1] and 34.9 nM in assay [2].
